Among the data in patent publication US11098032B2, “Pyran dervatives as CYP11A1 (cytochrome P450 monooxygenase 11A1) inhibitors” (ORION CORPORATION, priority 2016, dated 2021) are IC50 values, retold here.

For this assay, the target named is T1, CYP11A1 (Homo sapiens, UniProt P05108).
T1 construct: human H295R adrenocortical carcinoma cell line was used as source of enzyme; endogenous in cells; host or cells: H295R human adrenocortical carcinoma cells
T1 sequence (P05108 40-521): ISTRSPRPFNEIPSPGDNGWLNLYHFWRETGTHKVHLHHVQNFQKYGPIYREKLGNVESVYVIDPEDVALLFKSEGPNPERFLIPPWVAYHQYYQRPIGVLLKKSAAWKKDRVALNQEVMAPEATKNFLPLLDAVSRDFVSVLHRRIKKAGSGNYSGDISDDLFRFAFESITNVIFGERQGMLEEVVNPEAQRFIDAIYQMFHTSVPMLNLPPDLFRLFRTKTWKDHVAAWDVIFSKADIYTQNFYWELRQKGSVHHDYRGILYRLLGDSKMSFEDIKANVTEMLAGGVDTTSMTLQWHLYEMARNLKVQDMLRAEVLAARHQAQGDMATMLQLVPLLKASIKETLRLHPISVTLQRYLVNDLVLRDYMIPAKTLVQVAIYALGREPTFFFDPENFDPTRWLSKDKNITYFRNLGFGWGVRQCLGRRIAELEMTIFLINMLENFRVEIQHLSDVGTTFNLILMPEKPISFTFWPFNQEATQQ
The assay is described as follows: CYP11A1 inhibition: modified isocaproic acid release assay (IARA) in H295R cells. Particulars: human H295R adrenocortical carcinoma cells treated three days, 3 nM [24,25-3H]-labelled cholesterol, 1% DMSO, 10 concentrations in duplicates; read-out: IC50 of the test compounds on CYP11A1 inhibition. It is filed as cell-based. The method, boiled down:
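Cholesterol side-chain cleavage followed as tritiated isocaproic acid in charcoal-extracted medium, counted by scintillation. Substrate was 3 nM [24,25-3H]-cholesterol on human H295R cells exposed for three days to ten compound concentrations (duplicates, 1% DMSO); IC50 derived.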
Regarding `CN(C)C(=O)C1CCC(COc2coc(CN3Cc4ccccc4C3)cc2=O)CC1` (centres unmarked) [Compound 217, 4-(((6-(Isoindolin-2-ylmethyl)-4-oxo-4H-pyran-3-yl)oxy)methyl)-N,N-dimethyl-cyclohexane-1-carboxamide], the half-maximal inhibitory concentration (IC50) was below 150 nM.

On to `CC(C)S(=O)(=O)N1CC=C(COc2coc(CN3Cc4ccccc4C3)cc2=O)CC1` [Compound 100, 2-(Isoindolin-2-ylmethyl)-5-((1-(isopropylsulfonyl)-1,2,3,6-tetrahydropyridin-4-yl)methoxy)-4H-pyran-4-one], for which the IC50 lay in the range of 150 to 300 nM.

`O=c1cc(CN2Cc3ccccc3C2)occ1OCC1CCOCC1` [Compound 67, 2-(Isoindolin-2-ylmethyl)-5-((tetrahydro-2H-pyran-4-yl)methoxy)-4H-pyran-4-one]: the IC50 fell in the range of 150 to 300 nM.

For `CN(C)C(=O)c1ccc(COc2coc(CN3CCc4ccccc4C3)cc2=O)cc1F` [Compound 78, 4-(((6-((3,4-Dihydroisoquinolin-2(1H)-yl)methyl)-4-oxo-4H-pyran-3-yl)oxy)-methyl)-2-fluoro-N,N-dimethylbenzamide], the IC50 lay in the range of 301 to 2000 nM.

As for `CCS(=N)(=O)c1ccc(COc2coc(CN3CCc4ccccc4C3)cc2=O)cc1` (centres unmarked) [Compound 166, 2-((3,4-Dihydroisoquinolin-2(1H)-yl)methyl)-5-((4-(ethylsulfonimidoyl)-benzyl)oxy)-4H-pyran-4-one], the concentration for half-maximal inhibition (IC50) lay within 301 to 2000 nM.

Turning to `O=c1cc(CN2Cc3ccccc3C2)occ1OCc1ccc(SC(F)(F)F)cc1` [Compound 3, 2-(Isoindolin-2-ylmethyl)-5-((4-((trifluoromethyl)thio)benzyl)oxy)-4H-pyran-4-one], the IC50 lay in the range of 301 to 2000 nM.

On to `CN(C)C(=O)c1ccc(COc2coc(CN3Cc4ccccc4C3)cc2=O)cc1` [Compound 120, 4-(((6-(Isoindolin-2-ylmethyl)-4-oxo-4H-pyran-3-yl)oxy)methyl)-N,N-dimethylbenzamide], for which the IC50 fell in the range of 150 to 300 nM.

Regarding `CS(=O)(=O)c1ccc(COc2coc(CN3Cc4ccc(OC(F)(F)F)cc4C3)cc2=O)cc1` [Compound 37, 5-((4-(Methylsulfonyl)benzyl)oxy)-2-((5-(trifluoromethoxy)isoindolin-2-yl)-methyl)-4H-pyran-4-one], the half-maximal inhibitory concentration (IC50) is below 150 nM.

For the compound `CS(=O)(=O)N1CC=C(COc2coc(CN3Cc4ccccc4C3)cc2=O)CC1` [Compound 98, 2-(Isoindolin-2-ylmethyl)-5-((1-(methylsulfonyl)-1,2,3,6-tetrahydropyridin-4-yl)methoxy)-4H-pyran-4-one], the IC50 lay in the range of 150 to 300 nM.

Regarding `O=C(NC1CCSC1=O)c1ccc(COc2coc(CN3Cc4ccccc4C3)cc2=O)cc1` (centres unmarked) [Compound 96, 4-(((6-(Isoindolin-2-ylmethyl)-4-oxo-4H-pyran-3-yl)oxy)methyl)-N-(2-oxotetra-hydrothiophen-3-yl)benzamide], the 50% inhibitory concentration (IC50) was in the range of 301 to 2000 nM.

As for `CC(F)(F)C(=O)N1CCC(COc2coc(CN3Cc4ccc(F)cc4C3)cc2=O)CC1` [Compound 223, 5-((1-(2,2-Difluoropropanoyl)piperidin-4-yl)methoxy)-2-((5-fluoroisoindolin-2-yl)methyl)-4H-pyran-4-one], the half-maximal inhibitory concentration (IC50) was in the range of 150 to 300 nM.

Turning to `CS(=O)(=O)N1CCC(COc2coc(C[N+]3([O-])Cc4ccc(C(F)(F)F)cc4C3)cc2=O)CC1` (centres unmarked) [Compound 290, 2-((5-((1-(Methylsulfonyl)piperidin-4-yl)methoxy)-4-oxo-4H-pyran-2-yl)methyl)-5-(trifluoromethyl)isoindoline 2-oxide], the IC50 lay within 301 to 2000 nM.

Consider `N#Cc1ccc(COc2coc(CN3Cc4ccc(Br)cc4C3)cc2=O)cc1` [Compound 278, 4-((6-((5-Bromoisoindolin-2-yl)methyl)-4-oxo-4H-pyran-3-yloxy)methyl)benzonitrile], for which the IC50 is below 150 nM.

For `CS(=N)(=O)c1ccc(COc2coc(CN3Cc4ccc(F)cc4C3)cc2=O)cc1` (centres unmarked) [Compound 88, 2-((5-Fluoroisoindolin-2-yl)methyl)-5-((4-(S-methylsulfonimidoyl)benzyl)oxy)-4H-pyran-4-one], the IC50 fell in the range of 150 to 300 nM.

For the compound `CN(C)C(=O)c1ccc(COc2coc(CN3Cc4ccccc4C3)cc2=O)c(F)c1` [Compound 61, 3-Fluoro-4-(((6-(isoindolin-2-ylmethyl)-4-oxo-4H-pyran-3-yl)oxy)methyl)-N,N-dimethylbenzamide], the IC50 fell in the range of 150 to 300 nM.

Turning to `CSc1ccc(COc2coc(CN3Cc4ccccc4C3)cc2=O)cc1` [Compound 82, 2-(Isoindolin-2-ylmethyl)-5-((4-(methylthio)benzyl)oxy)-4H-pyran-4-one], the IC50 was 150 to 300 nM.

Regarding `CC(C)(C)NC(=O)c1ccc(COc2coc(CN3CCc4ccccc4C3)cc2=O)cc1` [Compound 135, N-(tert-Butyl)-4-(((6-((3,4-dihydroisoquinolin-2(1H)-yl)methyl)-4-oxo-4H-pyran-3-yl)oxy)methyl)benzamide], the IC50 was 150 to 300 nM.

`CC(=O)OCC(=O)N1CCC(COc2coc(CN3Cc4ccccc4C3)cc2=O)CC1` [Compound 257, 2-(4-(((6-(Isoindolin-2-ylmethyl)-4-oxo-4H-pyran-3-yl)oxy)methyl)piperidin-1-yl)-2-oxoethyl acetate]: the IC50 was below 150 nM.

For the compound `CNC(=O)c1ccc(COc2coc(CN3CCc4ccccc4C3)cc2=O)cc1F` [Compound 80, 4-(((6-((3,4-Dihydroisoquinolin-2(1H)-yl)methyl)-4-oxo-4H-pyran-3-yl)oxy)-methyl)-2-fluoro-N-methylbenzamide], the concentration for half-maximal inhibition (IC50) was 301 to 2000 nM.

For `CNC(=O)c1ccc(COc2coc(CN3Cc4ccccc4C3)cc2=O)cc1F` [Compound 79, 2-Fluoro-4-(((6-(isoindolin-2-ylmethyl)-4-oxo-4H-pyran-3-yl)oxy)methyl)-N-methylbenzamide], the half-maximal inhibitory concentration (IC50) was in the range of 301 to 2000 nM.

As for `CCS(=O)(=O)N1CC=C(COc2coc(CN3Cc4ccccc4C3)cc2=O)CC1` [Compound 99, 5-((1-(Ethylsulfonyl)-1,2,3,6-tetrahydropyridin-4-yl)methoxy)-2-(isoindolin-2-ylmethyl)-4H-pyran-4-one], the IC50 lay within 150 to 300 nM.

Consider `Cc1ccc2c(c1)CN(Cc1cc(=O)c(OCc3ccc(S(C)(=O)=O)cc3)co1)C2` [Compound 279, 2-((5-Methylisoindolin-2-yl)methyl)-5-((4-(methylsulfonyl)benzyl)oxy)-4H-pyran-4-one], for which the IC50 lay within 150 to 300 nM.

In the case of `O=C(c1ccc(COc2coc(CN3Cc4ccccc4C3)cc2=O)cc1)N1CCC(O)CC1` [Compound 152, 5-((4-(4-Hydroxypiperidine-1-carbonyl)benzyl)oxy)-2-(isoindolin-2-ylmethyl)-4H-pyran-4-one], the IC50 lay in the range of 301 to 2000 nM.

For the compound `C[C@H]1c2ccccc2CN1Cc1cc(=O)c(OCc2ccc(C(=O)N(C)C)cc2)co1` [Compound 132, (S)—N,N-Dimethyl-4-(((6-((1-methylisoindolin-2-yl)methyl)-4-oxo-4H-pyran-3-yl)oxy)methyl)benzamide], the IC50 was 301 to 2000 nM.

Take `CS(=O)(=O)N(C1CCC(COc2coc(CN3Cc4ccccc4C3)cc2=O)CC1)C1CC1` (centres unmarked) [Compound 219, N-Cyclopropyl-N-(4-(((6-(isoindolin-2-ylmethyl)-4-oxo-4H-pyran-3-yl)oxy)-methyl)cyclohexyl)methanesulfonamide]: the IC50 was below 150 nM.

On to `CCS(=O)(=O)N1CCC(C)(COc2coc(CN3Cc4ccccc4C3)cc2=O)CC1` [Compound 192, 5-((1-(Ethylsulfonyl)-4-methylpiperidin-4-yl)methoxy)-2-(isoindolin-2-ylmethyl)-4H-pyran-4-one], for which the IC50 is below 150 nM.

In the case of `O=c1cc(CN2Cc3ccccc3C2)occ1OCc1ccc(-c2ccccc2)cc1` [Compound 164, 5-([1,1′-Biphenyl]-4-ylmethoxy)-2-(isoindolin-2-ylmethyl)-4H-pyran-4-one], the IC50 was in the range of 150 to 300 nM.

With `CCS(=O)(=O)N1CCC(COc2coc(CN3Cc4ccccc4C3)cc2=O)CC1` [Compound 188, 5-((1-(Ethylsulfonyl)piperidin-4-yl)methoxy)-2-(isoindolin-2-ylmethyl)-4H-pyran-4-one], the IC50 was below 150 nM.

Regarding `N#Cc1cccc(COc2coc(CN3CCc4ccccc4C3)cc2=O)c1` [Compound 50, 3-(((6-((3,4-Dihydroisoquinolin-2(1H)-yl)methyl)-4-oxo-4H-pyran-3-yl)oxy)-methyl)benzonitrile], the IC50 lay in the range of 301 to 2000 nM.

In the case of `CS(=O)(=O)N1CC[C@@H](COc2coc(CN3Cc4ccccc4C3)cc2=O)C1` [Compound 277, (R)-2-(Isoindolin-2-ylmethyl)-5-((1-(methylsulfonyl)pyrrolidin-3-yl)methoxy)-4H-pyran-4-one], the IC50 is 301 to 2000 nM.

For the compound `C[S+]([O-])c1ccc(COc2coc(CN3Cc4ccccc4C3)cc2=O)cc1` (centres unmarked) [Compound 81, 2-(Isoindolin-2-ylmethyl)-5-((4-(methylsulfinyl)benzyl)oxy)-4H-pyran-4-one], the IC50 was in the range of 150 to 300 nM.

On to `CS(=O)(=O)N1CCC(COc2coc(CN3CCc4ccccc4C3)cc2=O)CC1` [Compound 179, 2-((3,4-Dihydroisoquinolin-2(1H)-yl)methyl)-5-((1-(methylsulfonyl)piperidin-4-yl)methoxy)-4H-pyran-4-one], for which the IC50 is 301 to 2000 nM.
